The subject of this experiment is thymic carcinoma. In words: Phase I clinical trial, objective tumor response in thymic carcinoma patients (RECIST). The experiment is classed as in vivo, human. The conditions noted are these: 150 mg daily; for decrease in the sum of target lesions compared to baseline: patient; for tumor response as per RECIST criteria: thymic carcinoma patient, 4 days on/3 days off for 3 weeks in 4-week cycle. The source says:
An objective tumor response was obtained in a patient, first diagnosed with thymic carcinoma in May 2002 and having had their third progression of disease with metastases to lung in July 2007, entered the phase I clinical trial in September 2007. […] The patient, prior to be treated in the clinical trial, received other treatments for their thymic carcinoma, as follows: from January 2005 to June 2005: Adriamycin®, Cytoxan®, Cisplatin; from February 2006 to May 2006: Ifosfamide; from October 2006 to June 2007: Taxol®, Carboplatin; from June 2007 to July 2007: Adriamycin®, Cytoxan®, Vincristine. The patient had also surgery in May 2002 and radiotherapy in July 2002 and July 2006.
Another objective tumor response was obtained in a patient, first diagnosed with thymic carcinoma in May 2006, becoming metastatic to lung, bones and peritoneum in October 2007. The patient started treatment in the phase I clinical trial in December 2008. […] The patient, prior to be treated in the clinical trial, received one line of chemotherapy (cisplatin/gemcitabine) from November 2007 to March 2008; they had surgery in May 2006 and radiotherapy in September 2006.

Molecules are shown by their SMILES.

For `CNC(=O)c1nn(C)c2c1C(C)(C)Cc1cnc(Nc3ccc(N4CCN(C)CC4)cc3)nc1-2` [compound of formula (I), 8-[4-(4-methyl-piperazin-1-yl)-phenylamino]-1,4,4-trimethyl-4,5-dihydro-1H-pyrazolo[4,3-h]quinazoline-3-carboxylic acid methylamide], the “decrease in the sum of target lesions compared to baseline” value (“decrease in the sum of target lesions” for short) (PR confirmed one month later) is given as 40%, the “decrease in the sum of target lesions” value (after 6 cycles) came to 30%, the “decrease in the sum of target lesions” value (after 10 cycles) is recorded as 31.2% and the “decrease in the sum of target lesions” value (documented until cycle 13) was 37.6%. Besides, the “tumor response as per RECIST criteria” value by setting is: (after 6 cycles) “partial tumor response (PR)”; (after 10 cycles) “partial tumor response (PR)”.

These data come from patent US8580793B2, “Use of kinase inhibitor for the treatment of thymoma” (Nerviano Medical Services S.r.l., priority 2009, dated 2013).
